# According to PubChem BioAssay (NCI):
#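 Results reflect a 48-hour exposure of cells in 96-well plates to compound at five concentrations. TGI marks complete inhibition of growth.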
# Tests used:
# Assay in all cases: DTP human tumour cell line panel, 48 h
# [1] = test system: RXF 393 renal
# [2] = test system: NCI-H460 lung
# [3] = test system: HS 578T breast
# [4] = test system: UACC-257 melanoma
# [5] = test system: SN12C renal
# [6] = test system: HL-60(TB) leukemia
# [7] = test system: SF-295 CNS
# [8] = test system: NCI/ADR-RES ovarian
# [9] = test system: 786-0 renal
# [10] = test system: UACC-62 melanoma
# [11] = test system: SK-OV-3 ovarian
# [12] = test system: EKVX NSCLC
# [13] = test system: K-562 leukemia
# [14] = test system: HOP-62 NSCLC
# [15] = test system: COLO 205 colon
# [16] = test system: OVCAR-3 ovarian
# [17] = test system: SK-MEL-5 melanoma
# [18] = test system: OVCAR-5 ovarian
# [19] = test system: SR leukemia
# [20] = test system: SK-MEL-2 melanoma
# [21] = test system: CCRF-CEM leukemia
# [22] = test system: ACHN renal
# [23] = test system: CAKI-1 renal
# [24] = test system: HOP-92 NSCLC
# [25] = test system: SNB-75 CNS
# [26] = test system: A549 NSCLC
# [27] = test system: T-47D breast
# [28] = test system: MDA-N
# [29] = test system: MDA-MB-435
# [30] = test system: HCT-116 colon
# [31] = test system: IGROV1 ovarian
# [32] = test system: SF-268 CNS
# [33] = test system: TK-10 renal
# [34] = test system: A498 renal
# [35] = test system: PC-3 prostate
# [36] = test system: SF-539 CNS
# [37] = test system: MDA-MB-231 breast
# [38] = test system: HT29 colon
# [39] = test system: SNB-19 CNS
# [40] = test system: OVCAR-8 ovarian
# [41] = test system: NCI-H23 lung
# [42] = test system: U251 CNS
# [43] = test system: SK-MEL-28 melanoma
# [44] = test system: HCT-15 colon
# [45] = test system: OVCAR-4 ovarian
# [46] = test system: MOLT-4 leukemia
# [47] = test system: M14 melanoma
# [48] = test system: DU-145 prostate
# [49] = test system: KM12 colon
# [50] = test system: NCI-H522 lung
# [51] = test system: SW-620 colon
# [52] = test system: HCC-2998 colon
# [53] = test system: LOX IMVI melanoma
# [54] = test system: MALME-3M melanoma
# [55] = test system: NCI-H226 lung
# [56] = test system: MCF7 breast
# [57] = test system: BT-549 breast
# [58] = test system: UO-31 renal
# [59] = test system: RPMI-8226 leukemia
compound,measurement,setting,value
C=C(C(N)=O)c1ccc([N+](=O)[O-])o1,TGI,[1],9.64 µM
same,TGI,[2],59 µM
same,TGI,[3],77.1 µM
same,TGI,[4],21.7 µM
same,TGI,[5],22.4 µM
same,TGI,[6],6.12 µM
same,TGI,[7],> 100 µM
same,TGI,[8],> 100 µM
same,TGI,[9],24.1 µM
same,TGI,[10],21.4 µM
same,TGI,[11],87.9 µM
same,TGI,[12],42 µM
same,TGI,[13],26 µM
same,TGI,[14],46.8 µM
same,TGI,[15],12.9 µM
same,TGI,[16],22.4 µM
same,TGI,[17],16.4 µM
same,TGI,[18],35.2 µM
same,TGI,[19],36.9 µM
same,TGI,[20],22.5 µM
same,TGI,[21],18.9 µM
same,TGI,[22],12.2 µM
same,TGI,[23],7.27 µM
same,TGI,[24],19.5 µM
same,TGI,[25],37.1 µM
same,TGI,[26],40.3 µM
same,TGI,[27],48 µM
same,TGI,[28],13.5 µM
same,TGI,[29],7.65 µM
same,TGI,[30],14.7 µM
same,TGI,[31],23.4 µM
same,TGI,[32],37.9 µM
same,TGI,[33],27.2 µM
same,TGI,[34],25.7 µM
same,TGI,[35],76 µM
same,TGI,[36],27.2 µM
same,TGI,[37],29.8 µM
same,TGI,[38],30.6 µM
same,TGI,[39],> 100 µM
same,TGI,[40],10.6 µM
same,TGI,[41],20.6 µM
same,TGI,[42],34.6 µM
same,TGI,[43],12.7 µM
same,TGI,[44],27.9 µM
same,TGI,[45],29 µM
same,TGI,[46],18.8 µM
same,TGI,[47],8.65 µM
same,TGI,[48],23.4 µM
same,TGI,[49],34.8 µM
same,TGI,[50],4.24 µM
same,TGI,[51],32.3 µM
same,TGI,[52],33.6 µM
same,TGI,[53],23.1 µM
same,TGI,[54],5.51 µM
same,TGI,[55],49.6 µM
same,TGI,[56],19.8 µM
CCOC(=O)CCC(NC(=O)OCc1ccccc1)C(=O)NC(CCC(=O)OCC)C(=O)NC(CCC(=O)OCC)C(=O)NC(CCC(=O)OCC)C(=O)NC(CCC(=O)OCC)C(=O)NC(CCC(=O)OCC)C(=O)NC(CCC(=O)OCC)C(=O)OCC (stereo not given),TGI,[2],> 100 µM
same,TGI,[4],> 100 µM
same,TGI,[5],> 100 µM
same,TGI,[6],> 100 µM
same,TGI,[9],> 100 µM
same,TGI,[10],> 100 µM
same,TGI,[13],> 100 µM
same,TGI,[14],> 100 µM
same,TGI,[16],> 100 µM
same,TGI,[17],> 100 µM
same,TGI,[18],> 100 µM
same,TGI,[19],> 100 µM
same,TGI,[20],> 100 µM
same,TGI,[21],> 100 µM
same,TGI,[22],> 100 µM
same,TGI,[23],> 100 µM
same,TGI,[25],> 100 µM
same,TGI,[57],> 100 µM
same,TGI,[26],> 100 µM
same,TGI,[27],> 100 µM
same,TGI,[28],> 100 µM
same,TGI,[29],> 100 µM
same,TGI,[30],> 100 µM
same,TGI,[32],> 100 µM
same,TGI,[33],> 100 µM
same,TGI,[34],> 100 µM
same,TGI,[35],> 100 µM
same,TGI,[37],> 100 µM
same,TGI,[38],> 100 µM
same,TGI,[39],> 100 µM
same,TGI,[40],> 100 µM
same,TGI,[41],> 100 µM
same,TGI,[42],> 100 µM
same,TGI,[43],> 100 µM
same,TGI,[44],> 100 µM
same,TGI,[45],> 100 µM
same,TGI,[46],> 100 µM
same,TGI,[47],> 100 µM
same,TGI,[48],> 100 µM
same,TGI,[50],> 100 µM
same,TGI,[58],> 100 µM
same,TGI,[51],> 100 µM
same,TGI,[52],53.8 µM
same,TGI,[53],> 100 µM
same,TGI,[59],> 100 µM
same,TGI,[54],> 100 µM
same,TGI,[55],> 100 µM
same,TGI,[56],> 100 µM
CC(=C(c1ccccc1)c1ccccc1)N1C(=O)CC(=O)N1C,TGI,[1],61.6 µM
same,TGI,[2],> 100 µM
same,TGI,[3],55.4 µM
same,TGI,[4],> 100 µM
same,TGI,[5],> 100 µM
same,TGI,[7],> 100 µM
same,TGI,[8],> 100 µM
same,TGI,[10],83.6 µM
same,TGI,[11],> 100 µM
same,TGI,[12],> 100 µM
same,TGI,[13],> 100 µM
same,TGI,[14],> 100 µM
same,TGI,[15],> 100 µM
same,TGI,[16],> 100 µM
same,TGI,[17],> 100 µM
same,TGI,[18],> 100 µM
same,TGI,[20],> 100 µM
same,TGI,[21],78.2 µM
same,TGI,[22],> 100 µM
same,TGI,[23],64.8 µM
same,TGI,[24],> 100 µM
same,TGI,[25],> 100 µM
same,TGI,[57],> 100 µM
same,TGI,[26],> 100 µM
same,TGI,[27],> 100 µM
same,TGI,[28],> 100 µM
same,TGI,[29],> 100 µM
same,TGI,[30],> 100 µM
same,TGI,[31],39 µM
same,TGI,[32],> 100 µM
same,TGI,[33],> 100 µM
same,TGI,[35],> 100 µM
same,TGI,[36],> 100 µM
same,TGI,[38],> 100 µM
same,TGI,[39],> 100 µM
same,TGI,[40],> 100 µM
same,TGI,[41],> 100 µM
same,TGI,[42],> 100 µM
same,TGI,[43],> 100 µM
same,TGI,[45],79.5 µM
same,TGI,[46],76.3 µM
same,TGI,[47],> 100 µM
same,TGI,[48],> 100 µM
same,TGI,[49],> 100 µM
same,TGI,[58],31.5 µM
same,TGI,[51],> 100 µM
same,TGI,[52],> 100 µM
same,TGI,[53],31.2 µM
same,TGI,[59],> 100 µM
same,TGI,[55],> 100 µM
same,TGI,[56],> 100 µM
